Measured values reported in patent publication US20190054054A1, “Methods reducing or preventing oxidation of high density lipoprotein (HDL)” (Amarin Pharmaceuticals Ireland Limited, priority 2017, published 2019).

Legend:
HUVECs [1] = test: NO and ONOO^− release from HUVECs treated concomitantly with agents and oxLDL (Example 11, Objective 2); format: cell-based, human; settings: oxLDL 11 mg/dL treated 30 min with agents, each at 10 μM; cells exposed 60 min
Experimental: (§1) The omega-3 fatty acid, cis-5,8,11,14,17-eicosapentaenoic acid (EPA) and docosahexaenoic acid (DHA) were purchased from Sigma-Aldrich (Saint Louis, Mo.) and solubilized in redistilled ethanol to 11 mM under nitrogen atmosphere. EPA and DHA stock solutions were stored at −20° C. until use.
(§2) Human umbilical vein endothelial cells (HUVECs) were obtained from healthy, female donors and isolated into primary, proliferating cell cultures (Clonetics, San Diego, Calif.). The cells were incubated in 95% air/5% CO2 at 37° C. and passaged by an enzymatic (trypsin) procedure. The confluent cells (4 to 5×10^5 cells/35 mm dish) were plated with minimum essential medium containing 3 mM L-arginine and 0.1 mM BH4 [(6R)-5,6,7,8-tetrahydrobiopterin]. Before experimental use, the cells (from second or third passage) were rinsed twice with Tyrode-HEPES buffer with 1.8 mM CaCl2.
(§3) Venous blood was collected from healthy volunteers into vacutainer tubes containing sodium EDTA. Plasma was separated by centrifugation at 3000 g for 25 min at 4° C. and adjusted to a density of 1.020 g/mL with KBr. Triglyceride-rich lipoproteins (TGRL) and LDL fractions were isolated by sequential centrifugation at 70,000 rpm at 4° C. in a Beckman LE-80 ultracentrifuge using a Beckman 50.4Ti rotor (Beckman Coulter, Inc., Fullerton, Calif.). The TGRL fraction (with a relative density of <1.020) was aspirated from the top of the centrifugate and discarded, leaving an LDL-enriched infranate (with a relative density of 1.020-1.063). The LDL subfraction was retained for additional experimentation. Plasma and lipoprotein fractions were maintained at 4° C. and protected from excessive exposure to light. Prior to oxidation experiments, EDTA was removed from the lipoprotein fraction using PD-10 desalting columns (GE Healthcare, Piscataway N.J.). After equilibration of the column with phosphate buffered saline (PBS), 2.5 mL of the lipoprotein fraction was loaded on the column and the flow-through discarded. The lipoprotein was then eluted with 3 mL of PBS. The LDL fractions were further diluted with PBS to obtain a 100 μg/mL apoB100 concentration.
(§4) LDL underwent oxidation following the addition of 10 μM CuSO4. […] Sample TBARS concentrations were determined spectrophotometrically by measuring sample absorbances against a standard curve derived from the hydrolysis of 1,1,3,3-tetramethoxypropane. […]
(§5) The amperometric method (with a response time of 0.1 ms) provides a quantitative signal (current) that is directly proportional to changes (from basal levels) in NO or ONOO^− concentration. […] Basal NO or ONOO^− levels were measured by differential pulse voltammetry in separate experiments. […]

HUVECs [2] = test: NO and ONOO^− release from pretreated HUVECs exposed to native LDL undergoing oxidation (Example 11, Objective 3); format: cell-based, human; settings: cells pretreated 30 min, agents each at 10 μM; native LDL 11 mg/dL pretreated with the same agents under auto-oxidation; 60 min
Experimental: as §1, §2, §3, §4, §5

[3] = Glucose- and peroxidation-induced cholesterol domain formation, small angle x-ray diffraction (Example 4); settings: 1:30 mole ratio; for effect on membrane structure as compared to control: at the start of the experiment (0 hours)
Experimental: Samples were shell-dried under nitrogen gas and placed under vacuum for 1 h to remove residual solvent. […] Lipid suspensions were then vortexed for 3 min at ambient temperature to form MLVs. […] Membrane lipid vesicles were oriented for x-ray diffraction analysis as described by others (e.g., Herbette et al., Biophys. […] Briefly, a 100 μL aliquot (containing 250 μg MLV) was aspirated from each sample and transferred to a Lucite® sedimentation cell fitted with an aluminum foil substrate upon which a given sample could be collected by centrifugation. Samples were then loaded into a Sorvall AH-629 swinging bucket rotor (DuPont Corp., Wilmington, Del.) and centrifuged at 35,000 g, 5° C., for 90 min. After centrifugal orientation, sample supernatants were aspirated and aluminum foil substrates, each supporting a single membrane pellet, were removed from the sedimentation cells. Sample pellets were dried for 5-10 min at ambient conditions, mounted onto curved glass supports, and placed in hermetically-sealed, brass or glass containers (for immediate analysis or temporary storage, respectively). All x-ray diffraction experiments were conducted at 20° C., 74% relative humidity. The latter was established by exposing membrane samples to saturated solutions of L-(+) tartaric acid (K2C4H4O6.½H2O). Samples were incubated at these conditions for at least 1 hour prior to experimental analysis. Oriented membrane samples were aligned at grazing incidence with respect to a collimated, mono-chromatic CuKα x-ray beam (Kα1 and Kα2 unresolved; λ=1.54 Å) produced by a Rigaku Rotaflex RU-200, high-brilliance microfocus generator (Rigaku-MSC, The Woodlands, Tex.) as previously described (Mason et al., Biophys. J., vol. 55(4), pages 769-778 (1989)). Diffraction data were collected on a one-dimensional, position-sensitive electron detector (Hecus X-ray Systems, Graz, Austria) at a sample-to-detector distance of 150 mm. […] The d-space for any given membrane multibilayer is a measurement of the unit cell periodicity of the membrane lipid bilayer (e.g., the distance from the center of one lipid bilayer to the next including surface hydration), and is calculated from Bragg's Law, h λ=2 d sin θ, where h is the diffraction order, λ is the wavelength of the x-ray radiation (1.54 Å), d is the membrane lipid bilayer unit cell periodicity, and θ is the Bragg angle equal to one-half the angle between the incident beam and scattered beam. […] Under the specific temperature and relative humidity conditions established for these experiments, the second-order, 17 Å cholesterol domain peak was well-delineated from other, neighboring cholesterol and phospholipid diffraction peaks and was thus used to quantitate relative cholesterol domain peak intensity. […]

Structure (SMILES) | NO (HUVECs [1]) | ONOO^− (HUVECs [1]) | NO (HUVECs [2]) | ONOO^− (HUVECs [2]) | inhibition of relative cholesterol domain peak intensity ([3]; 96-hour time point, compared to vehicle or vitamin E) | effect on membrane structure as compared to control ([3]; glucose 200 mg/dL) | effect on cholesterol domain formation as compared to control ([3]; any experimental time point, glucose 200 mg/dL)
CC/C=C\C/C=C\C/C=C\C/C=C\C/C=C\C/C=C\CCC(=O)O [DHA, docosahexaenoic acid] | 362 ± 39 | 240 ± 27 | 406 ± 40 | 212 ± 26 |  |  | 
CC/C=C\C/C=C\C/C=C\C/C=C\C/C=C\CCCC(=O)O [EPA, cis-5,8,11,14,17-eicosapentaenoic acid] | 385 ± 43 | 232 ± 24 | 419 ± 37 | 207 ± 24 | more than 99% | no appreciable effect on membrane structure | 
Cc1c(C)c2c(c(C)c1O)CC[C@@](C)(CCC[C@H](C)CCC[C@H](C)CCCC(C)C)O2 [vitamin E, α-tocopherol] |  |  |  |  |  | no appreciable effect on membrane structure | no significant effect on cholesterol domain formation
